Source: patent US6737383B1, “Herbicidal oxadiazolidines” (priority 1999, dated 2004)

Columns and labels:
cocklebur = test: Test B pre/postemergence cocklebur; format: in vivo, Xanthium strumarium; settings: for Cocklebur plant response rating: scale of 0 to 10 where 0 is no effect and 10 is complete control
Procedure, shortened: (§1)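 Herbicidal effect was estimated by eye on a ten-point control scale after plants spent twelve to sixteen days in a greenhouse following soil or foliar treatment. Foliar sprays targeted plants at one to four leaves; all doses were formulated in a non-phytotoxic solvent with surfactant.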

pigweed = test: Test B pre/postemergence pigweed; format: in vivo, Amaranthus retroflexus; settings: for Redroot pigweed plant response rating: scale of 0 to 10 where 0 is no effect and 10 is complete control
Procedure, shortened: as §1

sugar beet = test: Test B pre/postemergence sugar beet; format: in vivo, Beta vulgaris; settings: for Sugarbeets plant response rating: scale of 0 to 10 where 0 is no effect and 10 is complete control
Procedure, shortened: as §1

bamyardgrass = test: Test B flood test barnyardgrass; format: in vivo, Echinochloa crus-galli
Procedure, shortened: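 Plants were grown to the 2-leaf stage before treatment with test chemical, then held in a greenhouse for twelve to sixteen days. Injury was visually rated against untreated controls on a 0–10 scale, where 0 is no effect and 10 is complete control.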

Alexandergrass = test: Test D Alexandergrass; format: in vivo, Brachiaria plantaginea; settings: Postemergence, 0 to 100 scale
common pursiane = test: Test D common purslane; format: in vivo, Portulaca oleracea; settings: Postemergence, 0 to 100 scale
common ragweed = test: Test D common ragweed; format: in vivo, Ambrosia elatior; settings: Postemergence, 0 to 100 scale
sandbur = test: Test D sandbur; format: in vivo, Cenchrus echinatus; settings: Postemergence, 0 to 100 scale
Green foxtail [1] = test: Test D green foxtail; format: in vivo; settings: Rate 250 g/ha; Postemergence; 0 to 100 scale
Green foxtail [2] = test: Test D green foxtail; format: in vivo; settings: Postemergence, 0 to 100 scale, 0 no injury, 100 complete control
[3] = Postemergence, Rate 125 g/ha, scale 0 to 10, 0 is no effect, 10 is complete control
[4] = Preemergence, Rate 62 g/ha, scale 0 to 10 (0 no effect, 10 complete control)
[5] = Rate 500 g/ha, Postemergence, scale 0 to 10, 0 no effect, 10 complete control
[6] = Rate 16 g/ha, 0 no injury, 100 complete control
[7] = Rate 32 g/ha, 0 no injury, 100 complete control
[8] = Rate 64 g/ha, 0 no injury, 100 complete control
[9] = Rate 125 g/ha, 0 no injury, 100 complete control

Structure (SMILES): CC(C)N(C(=O)n1oc(=O)n(CC2CCCO2)c1=O)c1ccc(F)cc1 (centres unmarked) [Compound 343]
- Plant response rating, Cocklebur (cocklebur; [3]): 0
- Plant response rating, Cocklebur (cocklebur; [4]): 0
- Cocklebur plant response rating (cocklebur; Preemergence, Rate 250 g/ha): 0
- Cocklebur plant response rating (cocklebur; Preemergence, Rate 500 g/ha): 0
- Cocklebur plant response rating (cocklebur; Rate 62 g/ha, Postemergence): 0
- Plant response rating, Cocklebur (cocklebur; [5]): 4
- Plant response rating, Redroot pigweed (pigweed; [3]): 0
- Plant response rating, Redroot pigweed (pigweed; [4]): 10
- Redroot pigweed plant response rating (0 to 10 scale) (pigweed; Preemergence, Rate 125 g/ha): 10
- Redroot pigweed plant response rating (pigweed; Preemergence, Rate 250 g/ha): 10
- Redroot pigweed plant response rating (pigweed; Preemergence, Rate 500 g/ha): 10
- Redroot pigweed plant response rating (pigweed; Rate 62 g/ha, Postemergence): 0
- Plant response rating, Redroot pigweed (pigweed; [5]): 5
- Plant response rating, Sugarbeets (sugar beet; [3]): 0
- Plant response rating, Sugarbeets (sugar beet; [4]): 0
- Sugarbeets plant response rating (0 to 10 scale) (sugar beet; Preemergence, Rate 125 g/ha): 0
- Sugarbeets plant response rating (sugar beet; Preemergence, Rate 250 g/ha): 1
- Sugarbeets plant response rating (sugar beet; Preemergence, Rate 500 g/ha): 6
- Sugarbeets plant response rating (sugar beet; Rate 62 g/ha, Postemergence): 0
- Plant response rating, Sugarbeets (sugar beet; [5]): 3
- Plant response rating, Barnyardgrass (bamyardgrass; Postemergence (flood test), Rate 125 g/ha, scale 0 to 10, 0 is no effect, 10 is complete control): 0
- Barnyardgrass plant response rating (bamyardgrass; Rate 62 g/ha, Postemergence (flood test species), scale of 0 to 10 where 0 is no effect and 10 is complete control): 0
- Plant response rating, Barnyardgrass (bamyardgrass; Rate 250 g/ha, Postemergence (flood test species), scale of 0 to 10 where 0 is no effect and 10 is complete control): 0
- Plant response rating, Barnyardgrass (bamyardgrass; Rate 500 g/ha, listed under Postemergence (flood test species), scale 0 to 10, 0 no effect, 10 complete control): 2
- Plant response rating, Alexandergrass (Alexandergrass; [6]): 0
- Plant response rating, Alexandergrass (Alexandergrass; [7]): 0
- Plant response rating, Alexandergrass (Alexandergrass; [8]): 50
- Plant response rating, Alexandergrass (Alexandergrass; [9]): 100
- Plant response rating, Alexandergrass (Alexandergrass; Rate 250 g/ha): 100
- Plant response rating, C. purslane (common pursiane; [6]): 0
- Plant response rating, C. purslane (common pursiane; [7]): 0
- Plant response rating, C. purslane (common pursiane; [8]): 0
- Plant response rating, C. purslane (common pursiane; [9]): 0
- Plant response rating, C. purslane (common pursiane; Rate 250 g/ha): 0
- Plant response rating, C. ragweed (common ragweed; [6]): 0
- Plant response rating, C. ragweed (common ragweed; [7]): 0
- Plant response rating, C. ragweed (common ragweed; [8]): 0
- Plant response rating, C. ragweed (common ragweed; [9]): 60
- Plant response rating, C. ragweed (common ragweed; Rate 250 g/ha): 90
- Plant response rating, Sandbur (sandbur; [6]): 0
- Plant response rating, Sandbur (sandbur; [7]): 0
- Sandbur plant response rating (sandbur; [8]): 0
- Sandbur plant response rating (sandbur; [9]): 50
- Plant response rating, Sandbur (sandbur; Rate 250 g/ha): 50
- Plant response rating, Green foxtail (Green foxtail [1]): 100
- Plant response rating, Green foxtail (Green foxtail [2]; Rate 64 g/ha): 100
- Plant response rating, Green foxtail (Green foxtail [2]; Rate 125 g/ha): 100
